Results on 28 compounds are retold here after US20110171171A1, “BRIDGED SECONDARY AMINES AND USE THEREOF AS IAP BIR DOMAIN BINDING COMPOUNDS” (Aegera Therapeutics, Inc., priority 2008, published 2011).

In test [1] the test system is Ovarian adenocarcinoma SKOV3 cells. Nature of the test: SKOV3 cell death assay (MTT, 72 hours). It is filed as cell-based. Particulars: Homo sapiens, SK-OV-3, compound alone. The protocol: Ovarian adenocarcinoma SKOV3 cells were cultured as monolayers in McCoy's 5a medium (HyClone) supplemented with 2.2 g/L sodium bicarbonate (Gibco), 10% FBS (HyClone) and 1% penicillin/streptomycin (HyClone). Cells were seeded in 96 well plates at 5000 cells/well. After 24 hours in culture, cells were treated with compound. Cells were incubated in the presence of compound for 72 hours. Metabolic viability of remaining cells was assessed by MTT (thiazolyl blue tetrazolium bromide, Sigma) assay.
(§1) EC50 values (50% cell survival in the presence of compound as compared to untreated controls) were calculated from survival curves using BioAssay software (CambridgeSoft, HCT116 and SKOV3 SAR) and GraphPad Prism (Graph Pad Software Inc., Synoviocyte SAR).

Test [2] concerns Colorectal carcinoma HCT116 cells. Description: HCT116 + ETR1 cell death assay (MTT, 72 hours). It is filed as cell-based. Particulars: with HGS ETR1 40 ng/ml. The protocol:
Colorectal carcinoma HCT116 cells were cultured as monolayers in 96 well plates at a density of 2000 cells per well in McCoy's 5a medium (HyClone) supplemented with 2.2 g/L sodium bicarbonate (Gibco), 10% FBS (HyClone) and 1% penecillin/streptomycin (HyClone). 24 hours later, triplicate wells were treated with HGS ETR1 (40 ng/ml) in combination with compound. Cells were incubated in the presence of compound and HGS agonistic Trail receptor antibody, ETR1 (Mapatumamab, 40 ng/ml) for 72 hours. Metabolic viability of remaining cells was assessed by MTT (thiazolyl blue tetrazolium bromide, Sigma) assay.
as §1

Usually EC50 stands for the concentration that produces a half-maximal response.

With `CN[C@@H](C)C(=O)N[C@H](C(=O)N1CCC[C@H]1CN(CCc1ccccc1)C(=O)CNC(=O)c1ccc(C(=O)NCC(=O)N(CCc2ccccc2)C[C@@H]2CCCN2C(=O)[C@@H](NC(=O)[C@H](C)NC)C2CCCCC2)cc1)C1CCCCC1` [Compound 1], the half-maximal effective concentration (EC50) in test [1] and in test [2] was less than 100 nM each time.

As for `CN[C@@H](C)C(=O)N[C@H](C(=O)N1CCC[C@H]1CN(CCc1ccccc1)C(=O)CNC(=O)c1ccc2cc(C(=O)NCC(=O)N(CCc3ccccc3)C[C@@H]3CCCN3C(=O)[C@@H](NC(=O)[C@H](C)NC)C3CCCCC3)ccc2c1)C1CCCCC1` [Compound 3], the concentration giving a half-maximal response (EC50) in test [1] and in test [2] was less than 100 nM each time. On to `CN[C@@H](C)C(=O)N[C@H](C(=O)N1CCC[C@H]1CN(CCc1ccccc1)C(=O)CNC(=O)C1CCC(C(=O)NCC(=O)N(CCc2ccccc2)C[C@@H]2CCCN2C(=O)[C@@H](NC(=O)[C@H](C)NC)C2CCCCC2)CC1)C1CCCCC1` (some centres unmarked) [Compound 4], for which the EC50 in test [1] and in test [2] was less than 100 nM each time. Turning to `CN[C@@H](C)C(=O)N[C@H](C(=O)N1CCC[C@H]1CN(CCc1ccc(F)cc1)C(=O)c1ccc(C(=O)N(CCc2ccc(F)cc2)C[C@@H]2CCCN2C(=O)[C@@H](NC(=O)[C@H](C)NC)C2CCCCC2)cc1)C1CCCCC1` [Compound 5], the EC50 in test [1] and in test [2] was less than 100 nM throughout. As to `CN[C@@H](C)C(=O)N[C@H](C(=O)N1CCC[C@H]1CN(CCc1ccc(F)cc1)C(=O)CNC(=O)c1ccc(C(=O)NCC(=O)N(CCc2ccc(F)cc2)C[C@@H]2CCCN2C(=O)[C@@H](NC(=O)[C@H](C)NC)C2CCCCC2)cc1)C1CCCCC1` [Compound 7], the EC50 in test [1] and in test [2] was less than 100 nM in each case. `CN[C@@H](C)C(=O)N[C@H](C(=O)N1CCC[C@H]1CN(CCc1ccc(F)cc1)C(=O)CNC(=O)c1ccc2cc(C(=O)NCC(=O)N(CCc3ccc(F)cc3)C[C@@H]3CCCN3C(=O)[C@@H](NC(=O)[C@H](C)NC)C3CCCCC3)ccc2c1)C1CCCCC1` [Compound 9]: the concentration for a half-maximal effect (EC50) in test [1] and in test [2] was less than 100 nM throughout.

Regarding `CN[C@@H](C)C(=O)N[C@H](C(=O)N1CCC[C@H]1CN(CCc1ccc(F)cc1)C(=O)CNC(=O)C1CCC(C(=O)NCC(=O)N(CCc2ccc(F)cc2)C[C@@H]2CCCN2C(=O)[C@@H](NC(=O)[C@H](C)NC)C2CCCCC2)CC1)C1CCCCC1` (some centres unmarked) [Compound 10], the EC50 in test [2] is less than 100 nM.

Consider `CN[C@@H](C)C(=O)N[C@H](C(=O)N1CCC[C@H]1CN(CCc1ccccc1)C(=O)c1ccc2cc(C(=O)N(CCc3ccccc3)C[C@@H]3CCCN3C(=O)[C@@H](NC(=O)[C@H](C)NC)C3CCCCC3)ccc2c1)C1CCCCC1` [Compound 12], for which the EC50 in test [2] was less than 100 nM. Take `CN[C@@H](C)C(=O)N[C@H](C(=O)N1CCC[C@H]1CN(CCc1ccc(OC)cc1)C(=O)c1ccc2cc(C(=O)N(CCc3ccc(OC)cc3)C[C@@H]3CCCN3C(=O)[C@@H](NC(=O)[C@H](C)NC)C3CCCCC3)ccc2c1)C1CCCCC1` [Compound 13]: in test [2], the 50% effective concentration (EC50) was more than 100 nM. `CN[C@@H](C)C(=O)N[C@H](C(=O)N1CCC[C@H]1CN(CCc1ccc(OC)cc1)C(=O)CNC(=O)c1ccc(-c2ccc(C(=O)NCC(=O)N(CCc3ccc(OC)cc3)C[C@@H]3CCCN3C(=O)[C@@H](NC(=O)[C@H](C)NC)C3CCCCC3)cc2)cc1)C1CCCCC1` [Compound 14]: the half-maximal effective concentration (EC50) in test [2] is more than 100 nM. Take `CN[C@@H](C)C(=O)N[C@H](C(=O)N1CCC[C@H]1CN(C(=O)CNC(=O)c1ccc(-c2ccc(C(=O)NCC(=O)N(C[C@@H]3CCCN3C(=O)[C@@H](NC(=O)[C@H](C)NC)C3CCCCC3)C3Cc4ccccc4C3)cc2)cc1)C1Cc2ccccc2C1)C1CCCCC1` [Compound 15]: in test [2], the half-maximal effective concentration (EC50) is less than 100 nM. For the compound `CN[C@@H](C)C(=O)N[C@H](C(=O)N1CCC[C@H]1CN(CCc1ccccc1)C(=O)c1ccc2cc(C(=O)N(CCc3ccccc3)C[C@@H]3CCCN3C(=O)[C@@H](NC(=O)[C@H](C)NC)C3CCCC3)ccc2c1)C1CCCC1` [Compound 16], the half-maximal effective concentration (EC50) in test [1] and in test [2] was less than 100 nM throughout. As to `CN[C@@H](C)C(=O)N[C@H](C(=O)N1CCC[C@H]1CN(CCc1ccccc1)C(=O)c1ccc2cc(C(=O)N(CCc3ccccc3)C[C@@H]3CCCN3C(=O)[C@@H](NC(=O)[C@H](C)NC)c3ccccc3)ccc2c1)c1ccccc1` [Compound 24], the EC50 in test [2] was less than 100 nM. With `CN[C@@H](C)C(=O)N[C@H](C(=O)N1CCC[C@H]1CN(CCc1ccccc1)C(=O)c1ccc(-c2ccc(C(=O)N(CCc3ccccc3)C[C@@H]3CCCN3C(=O)[C@@H](NC(=O)[C@H](C)NC)c3ccccc3)cc2)cc1)c1ccccc1` [Compound 25], the EC50 in test [2] was less than 100 nM. `CN[C@@H](C)C(=O)N[C@H](C(=O)N1CCC[C@H]1CN(CCc1ccccc1)C(=O)c1ccc2cc(C(=O)N(CCc3ccccc3)C[C@@H]3CCCN3C(=O)[C@@H](NC(=O)[C@H](C)NC)C3CCOCC3)ccc2c1)C1CCOCC1` [Compound 26]: in test [2], the half-maximal effective concentration (EC50) is less than 100 nM. Regarding `CN[C@@H](C)C(=O)N[C@H](C(=O)N1CCC[C@H]1CN(CCc1ccccc1)C(=O)c1ccc(-c2ccc(C(=O)N(CCc3ccccc3)C[C@@H]3CCCN3C(=O)[C@@H](NC(=O)[C@H](C)NC)C3CCOCC3)cc2)cc1)C1CCOCC1` [Compound 27], the concentration giving a half-maximal response (EC50) in test [2] is less than 100 nM. Consider `CN[C@@H](C)C(=O)N[C@H](C(=O)N1CCC[C@H]1CN(CCc1ccc(F)cc1)S(=O)(=O)c1ccc2cc(S(=O)(=O)N(CCc3ccc(F)cc3)C[C@@H]3CCCN3C(=O)[C@@H](NC(=O)[C@H](C)NC)C3CCCCC3)ccc2c1)C1CCCCC1` [Compound 28], for which the EC50 in test [2] was less than 100 nM.

With `CN[C@@H](C)C(=O)N[C@H](C(=O)N1CCC[C@H]1CN(CCc1ccccc1)C(=O)CNC(=O)c1ccc(-c2ccc(C(=O)NCC(=O)N(CCc3ccccc3)C[C@@H]3CCCN3C(=O)[C@@H](NC(=O)[C@H](C)NC)C3CCCCC3)cn2)nc1)C1CCCCC1` [Compound 29], the EC50 in test [2] was less than 100 nM.

As to `CN[C@@H](C)C(=O)N[C@H](C(=O)N1CCC[C@H]1CN(CCc1ccccc1)C(=O)c1ccc(-c2ccc(C(=O)N(CCc3ccccc3)C[C@@H]3CCCN3C(=O)[C@@H](NC(=O)[C@H](C)NC)C3CCCCC3)cn2)nc1)C1CCCCC1` [Compound 30], in test [2], the EC50 was less than 100 nM. Regarding `CN[C@@H](C)C(=O)N[C@H](C(=O)N1CCC[C@H]1CN(CCc1ccccc1)C(=O)[C@@H](C)NC(=O)c1ccc(-c2ccc(C(=O)N[C@H](C)C(=O)N(CCc3ccccc3)C[C@@H]3CCCN3C(=O)[C@@H](NC(=O)[C@H](C)NC)C3CCCCC3)cc2)cc1)C1CCCCC1` [Compound 31], the EC50 in test [2] is less than 100 nM. `CN[C@@H](C)C(=O)N[C@H](C(=O)N1CCC[C@H]1CN(CCc1ccccc1)C(=O)CN(C)C(=O)c1ccc(-c2ccc(C(=O)N(C)CC(=O)N(CCc3ccccc3)C[C@@H]3CCCN3C(=O)[C@@H](NC(=O)[C@H](C)NC)C3CCCCC3)cc2)cc1)C1CCCCC1` [Compound 32]: in test [2], the 50% effective concentration (EC50) is less than 100 nM.

On to `CN[C@@H](C)C(=O)N[C@H](C(=O)N1CCC[C@H]1CN(CCc1ccccc1)C(=O)[C@H](C)NC(=O)c1ccc(-c2ccc(C(=O)N[C@@H](C)C(=O)N(CCc3ccccc3)C[C@@H]3CCCN3C(=O)[C@@H](NC(=O)[C@H](C)NC)C3CCCCC3)cc2)cc1)C1CCCCC1` [Compound 33], for which the EC50 in test [2] is less than 100 nM.

Turning to `CN[C@@H](C)C(=O)N[C@H](C(=O)N1CCC[C@H]1CN(CCc1ccccc1)C(=O)c1csc(-c2ccc(-c3nc(C(=O)N(CCc4ccccc4)C[C@@H]4CCCN4C(=O)[C@@H](NC(=O)[C@H](C)NC)C4CCCCC4)cs3)cc2)n1)C1CCCCC1` [Compound 34], in test [2], the EC50 is less than 100 nM.

On to `CN[C@@H](C)C(=O)N[C@H](C(=O)N1CCC[C@H]1CN(CCc1ccccc1)C(=O)c1csc(-c2ccc(-c3ccc(-c4nc(C(=O)N(CCc5ccccc5)C[C@@H]5CCCN5C(=O)[C@@H](NC(=O)[C@H](C)NC)C5CCCCC5)cs4)cc3)cc2)n1)C1CCCCC1` [Compound 35], for which the EC50 in test [2] is less than 100 nM.

As to `CN[C@H](C(=O)N[C@H](C(=O)N1CCC[C@H]1CN(CCc1ccccc1)C(=O)c1ccc(-c2ccc(C(=O)N(CCc3ccccc3)C[C@@H]3CCCN3C(=O)[C@@H](NC(=O)[C@@H](NC)C3CC3)C3CCCCC3)cc2)cc1)C1CCCCC1)C1CC1` [Compound 36], the half-maximal effective concentration (EC50) in test [2] was less than 100 nM. As for `CCN[C@@H](C)C(=O)N[C@H](C(=O)N1CCC[C@H]1CN(CCc1ccccc1)C(=O)c1ccc(-c2ccc(C(=O)N(CCc3ccccc3)C[C@@H]3CCCN3C(=O)[C@@H](NC(=O)[C@H](C)NCC)C3CCCCC3)cc2)cc1)C1CCCCC1` [Compound 37], the EC50 in test [2] was less than 100 nM. For the compound `CCCN[C@@H](C)C(=O)N[C@H](C(=O)N1CCC[C@H]1CN(CCc1ccccc1)C(=O)c1ccc(-c2ccc(C(=O)N(CCc3ccccc3)C[C@@H]3CCCN3C(=O)[C@@H](NC(=O)[C@H](C)NCCC)C3CCCCC3)cc2)cc1)C1CCCCC1` [Compound 38], the EC50 in test [2] was less than 100 nM. For `CC[C@H](NC)C(=O)N[C@H](C(=O)N1CCC[C@H]1CN(CCc1ccccc1)C(=O)c1ccc(-c2ccc(C(=O)N(CCc3ccccc3)C[C@@H]3CCCN3C(=O)[C@@H](NC(=O)[C@H](CC)NC)C3CCCCC3)cc2)cc1)C1CCCCC1` [Compound 39], the EC50 in test [2] was less than 100 nM.
